Counter-ions that a name gives are not always drawn.
How the values were obtained:
[1] = system: HCT116; conditions: 72 h
Experimental: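 HCT116 control and MTA1-KO (CRISPR) HCT116 cells were seeded in 384-well plates (800 cells/well), treated 16 h later with 237 metabolism-related anticancer drugs at five doses (10 uM, 2 uM, 400 nM, 80 nM, 16 nM) for 72 h, two replicates; viability by CCK8. Values are % inhibition of viability relative to untreated cells, plus fitted IC50.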

[2] = system: HCT116; test: viability inhibition vs untreated; higher = more cytotoxic; conditions: 72 h

Row | SMILES | IC50 ([1]; genotype: MTA1-KO) [µM] | IC50 ([1]; genotype: control) [µM] | viability inhibition ([2]; genotype: MTA1-KO, 16 nM) [%] | viability inhibition ([2]; genotype: MTA1-KO, 80 nM) [%] | viability inhibition ([2]; genotype: MTA1-KO, 400 nM) [%] | viability inhibition ([2]; genotype: MTA1-KO, 2000 nM) [%] | viability inhibition ([2]; genotype: MTA1-KO, 10000 nM) [%] | viability inhibition ([2]; genotype: control, 16 nM) [%] | viability inhibition ([2]; genotype: control, 80 nM) [%] | viability inhibition ([2]; genotype: control, 400 nM) [%] | viability inhibition ([2]; genotype: control, 2000 nM) [%] | viability inhibition ([2]; genotype: control, 10000 nM) [%]
1 | S=C(N/N=C1/CCCc2cccnc21)N1CCN(c2ccccn2)CC1 [COTI2] | 0.246 | 1.07 | 5.92 | 0.177 | 50.3 | 49.7 | 67.4 | 8.87 | -13.6 | -3.5 | 87.4 | 88.4
2 | c1cc(-c2cnn3cc(-c4ccc(OCCN5CCCCC5)cc4)cnc23)ccn1 [Dorsomorphin dihydrochloride] | > 10 | 8.54 | -1.27 | -9.68 | 3.35 | 4.71 | 43.6 | -2.17 | -2.84 | -1.4 | 7.12 | 55.1
3 | CC(C)(Sc1cc(C(C)(C)C)c(O)c(C(C)(C)C)c1)Sc1cc(C(C)(C)C)c(O)c(C(C)(C)C)c1 [Probucol] | > 10 | > 10 | -5.9 | -11 | -1.83 | -5.06 | -0.265 | 6.44 | 11.6 | -2.62 | 16.6 | 9.78
4 | NC(N)=NCCC[C@H](N)C(=O)O [L-arginine monohydrochloride] | > 10 | > 10 | -2.61 | -19.3 | -11.5 | -6.84 | 12.2 | -3.45 | -8.59 | 1.36 | 1.49 | 23.5
5 | CC(=O)c1ccc2c(c1)c1cc(C(C)=O)ccc1n2CCNC(C)C [CBL0137 hydrochloride] | 0.379 | 0.355 | -9.26 | -16.6 | 65.6 | 114 | 109 | 7.74 | -9.1 | 81.5 | 108 | 103
6 | NC(=O)N/N=C/c1ccc([N+](=O)[O-])o1 [Furacilin] | > 10 | > 10 | -10.7 | -2.24 | -4.15 | 1.42 | 5.25 | 6.06 | 11.2 | 22.1 | 21.4 | -6.53
7 | C/C=C/c1cc(OC)c(OC)cc1OC [alpha-Asarone] | > 10 | > 10 | -3.55 | -23.5 | -15.1 | -10.5 | 9.18 | -6.36 | -8.84 | -15.6 | -8.42 | -0.859
8 | OC(CNc1ccccc1)Cn1c2ccc(Br)cc2c2cc(Br)ccc21 (stereo not drawn) [P7C3] | > 10 | > 10 | -3.09 | -13 | -15.4 | -15.3 | 6.71 | 10.1 | -2.92 | 4.14 | -4.2 | 7.54
9 | CCc1nc(N)nc(N)c1-c1ccc(Cl)cc1 [Pyrimethamine] | 6.54 | 4.89 | -6.42 | -11.6 | -0.866 | 10.9 | 60.5 | 2.52 | 7.55 | 13.3 | 20.1 | 82.3
10 | CC(C)(O)CNc1nc(Nc2ccnc(C(F)(F)F)c2)nc(-c2cccc(C(F)(F)F)n2)n1 [Enasidenib] | > 10 | > 10 | -26 | -20.5 | -17.3 | -19.3 | -24.8 | -12.3 | -12.7 | -4.75 | -20.9 | -15.6
11 | O=C(O[C@@H]1Cc2c(O)cc(O)cc2O[C@@H]1c1cc(O)c(O)c(O)c1)c1cc(O)c(O)c(O)c1 [(-)-Epigallocatechin Gallate] | > 10 | > 10 | 13 | -1.62 | 5.38 | 12 | 19.4 | -8.68 | -5.93 | -14.9 | -4.61 | -3.45
12 | Oc1ccc2c(c1)OCO2 [Sesamol] | > 10 | > 10 | -15.3 | -20.6 | -20.7 | -23.5 | -9.02 | 12.7 | -1.76 | -11.9 | -12.6 | -2.94
13 | N#Cc1c(O)c2c(-c3ccc(-c4ccccc4O)cc3)csc2[nH]c1=O | > 10 | > 10 | 7.25 | 0.475 | 5.93 | 6.59 | 21.8 | -9.79 | -10.7 | -8.84 | -17.7 | 3.16
14 | O=c1c(O)c(-c2ccc(O)cc2)oc2cc(O)cc(O)c12 [Kaempferol] | > 10 | > 10 | 9.79 | 3.08 | 3.45 | 10.9 | 39 | 7.5 | 18.7 | -0.112 | 8.84 | 23.1
15 | NS(=O)(=O)c1cc2c(cc1Cl)NC=NS2(=O)=O [Chlorothiazide] | > 10 | > 10 | -10.2 | -0.674 | -4.5 | -3.61 | -8.39 | 3.92 | 0.542 | 0.606 | -0.861 | 5.64
16 | COc1ccc(Cc2cnc(N)nc2N)cc1OC [Diaveridine] | > 10 | > 10 | 9.72 | -12.4 | -14.2 | -12.8 | 8.55 | 7.02 | -9.3 | -5.19 | -12.6 | 10.2
17 | CC(=O)Nc1ccc(NC(=S)NC(=O)c2ccc(C(C)(C)C)cc2)cc1 [Tenovin-1] | 0.456 | 0.931 | -26.3 | -21.8 | 12.8 | 59.2 | 62.3 | -20.9 | -18.3 | 3.67 | 73.1 | 90.4
18 | c1ccc(-c2ccc(C(c3ccccc3)n3ccnc3)cc2)cc1 (stereo not drawn) [Bifonazole] | > 10 | > 10 | -14.7 | -10.9 | -14.8 | -16.2 | 16.8 | 7.85 | -6.02 | -12.2 | -12 | 18.9
19 | O=C([O-])C(Cl)Cl.[Na+] [Sodium Dichloroacetate] | > 10 | > 10 | -5.96 | -6.01 | -16.4 | -11.2 | 11.1 | -15.2 | -8.93 | -10.2 | -22.3 | -2.12

Reference: the supplement of paper PMC10477900
